Laboratory results reported in patent US9113629B2, “4-amino-6-(4-substituted-phenyl)-picolinates and 6-amino-2-(4-substituted-phenyl)-pyrimidine-4-carboxylates and their use as herbicides” (DOW AGROSCIENCES LLC, priority 2013, dated 2015).
Where two headings read alike, the source gives them in different places.

Experiments:
[1] = system: Key Broadleaf Weed and Crop Species; test: Post-emergent Test II herbicidal activity (Table 5); type: in vivo; details: post-emergence, 336 h, post-emergent, 14 days after application; for pest or weed control at 66 g/ha: 66 g ai/ha; for pest or weed control at 132 g/ha: 132 g ai/ha
How it was run: (§1)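 Foliar application at 187 L/ha to greenhouse-grown seedlings (first or second true leaf); subirrigation thereafter. Visual 0–100% injury at 14 d relative to untreated plants.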

[2] = system: Key Grass and Sedge Weeds as well as Grass Crops; test: Post-emergent Test II herbicidal activity (Table 6); type: in vivo; details: post-emergence, 336 h; for pest or weed control at 66 g/ha: application rate 66 g ai/ha; for pest or weed control at 132 g/ha: application rate 132 g ai/ha
How it was run: as §1

[3] = ABUTH: velvetleaf (Abutilon theophrasti), read-out: Visual Growth Reduction (%) 14 Days After Application ABUTH
[4] = AMARE: redroot pigweed (Amaranthus retroflexus), read-out: Visual Growth Reduction (%) 14 Days After Application AMARE
[5] = BRSNN: oilseed-rape, canola (Brassica napus), read-out: Visual Growth Reduction (%) 14 Days After Application BRSNN
[6] = CHEAL: lambsquarters (Chenopodium album), read-out: Visual Growth Reduction (%) 14 Days After Application CHEAL
[7] = EPHHL: wild poinsettia (Euphorbia heterophylla), read-out: Visual Growth Reduction (%) 14 Days After Application EPHHL
[8] = HELAN: sunflower (Helianthus annuus), read-out: Visual Growth Reduction (%) 14 Days After Application HELAN
[9] = VIOTR: wild pansy (Viola tricolor), read-out: Visual Growth Reduction (%) 14 Days After Application VIOTR
[10] = Triticum aestivum, TRZSS (wheat), read-out: Visual Growth Reduction (%) 14 Days After Application, TRZSS
[11] = CYPES: yellow nutsedge (Cyperus esculentus), read-out: Visual Growth Reduction (%) 14 Days After Application, CYPES
[12] = DIGSA: crabgrass (Digitaria sanguinalis), read-out: Visual Growth Reduction (%) 14 Days After Application, DIGSA
[13] = ECHCG: barnyardgrass (Echinochloa crus-galli), read-out: Visual Growth Reduction (%) 14 Days After Application, ECHCG
[14] = ORYSA: rice (Oryza sativa), read-out: Visual Growth Reduction (%) 14 Days After Application, ORYSA
[15] = SETFA: giant foxtail (Setaria faberi), read-out: Visual Growth Reduction (%) 14 Days After Application, SETFA
[16] = SORVU: grain sorghum (Sorghum vulgare), read-out: Visual Growth Reduction (%) 14 Days After Application, SORVU
[17] = ZEAMX: maize, corn (Zea mays), read-out: Visual Growth Reduction (%) 14 Days After Application, ZEAMX

## C#Cc1ccc(-c2nc(C(=O)OC)c(Cl)c(N)c2C)cc1 [Compound 40, methyl 4-amino-3-chloro-6-(4-ethynylphenyl)-5-methylpicolinate]
[1]; [3]
  pest or weed control at 66 g/ha: 75 to 84%
  pest or weed control at 132 g/ha: 95 to 100%
[1]; [4]
  pest or weed control at 66 g/ha: 0 to 29%
  pest or weed control at 132 g/ha: 45 to 59%
[1]; [5]
  pest or weed control at 66 g/ha: 45 to 59%
  pest or weed control at 132 g/ha: 45 to 59%
[1]; [6]
  pest or weed control at 66 g/ha: 45 to 59%
  pest or weed control at 132 g/ha: 60 to 74%
[1]; [7]
  pest or weed control at 66 g/ha: 0 to 29%
  pest or weed control at 132 g/ha: 0 to 29%
[1]; [8]
  pest or weed control at 66 g/ha: 85 to 94%
  pest or weed control at 132 g/ha: 95 to 100%
[1]; [9]
  pest or weed control at 66 g/ha: 0 to 29%
  pest or weed control at 132 g/ha: 0 to 29%
[2]; [10]
  pest or weed control at 66 g/ha: 0 to 29%
  pest or weed control at 132 g/ha: 0 to 29%
[2]; [11]
  pest or weed control at 66 g/ha: 0 to 29%
  pest or weed control at 132 g/ha: 0 to 29%
[2]; [12]
  pest or weed control at 66 g/ha: 0 to 29%
  pest or weed control at 132 g/ha: 0 to 29%
[2]; [13]
  pest or weed control at 66 g/ha: 0 to 29%
  pest or weed control at 132 g/ha: 0 to 29%
[2]; [14]
  pest or weed control at 66 g/ha: 0 to 29%
  pest or weed control at 132 g/ha: 0 to 29%
[2]; [15]
  pest or weed control at 66 g/ha: 0 to 29%
  pest or weed control at 132 g/ha: 0 to 29%
[2]; [16]
  pest or weed control at 66 g/ha: 0 to 29%
  pest or weed control at 132 g/ha: 0 to 29%
[2]; [17]
  pest or weed control at 66 g/ha: 0 to 29%
  pest or weed control at 132 g/ha: 0 to 29%
